Legend:
Type in all cases: functional
Streptococcus pneumoniae [1] = assay: Antimicrobial activity against erythromycin-susceptible Streptococcus pneumoniae ATCC 49619
Haemophilus influenzae [2] = assay: Antimicrobial activity against Haemophilus influenzae ATCC 31517 MMSA
Staphylococcus aureus [3] = assay: Antimicrobial activity against Staphylococcus aureus Oxford
Streptococcus pneumoniae [4] = assay: Antimicrobial activity against penicillin- and erythromycin-resistant Streptococcus pneumoniae
Streptococcus pneumoniae [5] = assay: Antimicrobial activity against penicillin- and erythromycin-resistant Streptococcus pneumoniae in presence of 2.5% horse blood
Enterococcus faecalis = assay: Antimicrobial activity against vancomycin-susceptible Enterococcus faecalis ATCC 29212
Haemophilus influenzae [6] = assay: Antimicrobial activity against LS2 Efflux knock-out Haemophilus influenzae
Escherichia coli [7] = assay: Antimicrobial activity against Escherichia coli 50
Staphylococcus aureus [8] = assay: Antimicrobial activity against vancomycin-susceptible Staphylococcus aureus ATCC 25923
Staphylococcus aureus [9] = assay: Antimicrobial activity against methicillin-sensitive Staphylococcus aureus ATCC 13709
Staphylococcus aureus [10] = assay: Antimicrobial activity against methicillin-resistant Staphylococcus aureus
Escherichia coli [11] = assay: Antimicrobial activity against Escherichia coli 49
Pseudomonas aeruginosa = assay: Antimicrobial activity against Pseudomonas aeruginosa ATCC 27853
Escherichia coli [12] = assay: Antimicrobial activity against Escherichia coli ATCC 25922
Enterococcus faecium = assay: Antimicrobial activity against vancomycin-resistant Enterococcus faecium

Measured: MIC

CCCCCCC(=O)N1CC(=O)/C(=C(\CCCOc2ccccc2)NCCCOC(C)C)C1=O
> 32 µg/mL: all assays above

Reference: ChEMBL document CHEMBL3232809, “Synthesis, antibiotic activity and structure-activity relationship study of some 3-enaminetetramic acids” (2014)
